Experiment: Part 2 MAD plasma pharmacokinetics, BID oral KAR5585 for 14 days
Conditions: for tmax: Median
[1] = 100 mg (Cohort 2) to 400 mg (Cohort 4) BID fed, 4-fold increase in dose
[2] = 100 mg BID fasted, Cohort 1, Day 1 AM, Mean
[3] = 100 mg BID fasted, Cohort 1, Day 14, Mean
[4] = 100 mg BID fed, Cohort 2, Day 1 AM, Mean
[5] = 100 mg BID fed, Cohort 2, Day 1 PM, Geo. Mean
[6] = 100 mg BID fed, Cohort 2, Day 1 PM, Mean
[7] = 100 mg BID fed, Cohort 2, Day 7 AM, Geo. Mean
[8] = 100 mg BID fed, Cohort 2, Day 7 AM, Mean
[9] = 100 mg BID fed, Cohort 2, Day 7 PM, Geo. Mean
[10] = 100 mg BID fed, Cohort 2, Day 14 AM, Geo. Mean
[11] = 100 mg BID fed, Cohort 2, Day 14 AM, Mean
[12] = 100 mg KAR5585 BID, fasted (Part 2, Cohort 1)
[13] = 200 mg BID fed, Cohort 3, Day 1 AM, Geo. Mean
[14] = 200 mg BID fed, Cohort 3, Day 1 PM, Geo. Mean

Procedure: Food effect was to be evaluated in Part 1, Period 2.
Part 2 (MAD): BID doses (separated by approximately 12 hours on Days 1 to 13) and a single AM dose on Day 14. One or more of the MAD Cohort could have been dosed once daily (QD).
Pharmacokinetic data were to be summarized descriptively.

In the case of `Nc1nc(O[C@H](c2ccc(Cl)cc2-c2ccccc2)C(F)(F)F)cc(N2CCC3(CC2)CN[C@H](C(=O)O)C3)n1` [KAR5417, (S)-8-(2-amino-6-((R)-1-(5-chloro-[1,1′-biphenyl]-2-yl)-2,2,2-trifluoroeth-oxy)pyrimidin-4-yl)-2,8-diazaspiro[4.5]decane-3-carboxylic acid], the “increase in mean AUC0-12, Day 1” value [1] is reported as 7.0 fold, the “increase in mean AUC0-12, Day 14” value [1] is reported as 4.6 fold and the “increase in mean AUC0-24, Day 1” value [1] is reported as 6.45 fold. The “increase in mean AUC0-24, Day 14” value [1] was 4.45 fold, the “increase in mean Cmax, Day 1” value [1] was 6.9 fold and the “increase in mean Cmax, Day 14” value [1] was ~4.5 fold. For the same molecule, the AUC0-12 [2] was 741 ng·h/mL, the Cmax [2] was 121 ng/mL and the t1/2 [2] was 3.43 h. It also gave a tmax (100 mg BID fasted, Cohort 1, Day 1 AM) of 3.0 h, an AUC0-12 [3] of 1280 ng·h/mL and an AUC0-24 [3] of 1650 ng·h/mL. For the same molecule, the Cmax [3] was 194 ng/mL, the t1/2 [3] was 18.8 h and the tmax (100 mg BID fasted, Cohort 1, Day 14) was 3.0 h. For the same molecule, the t1/2 (100 mg BID fed, Cohort 2, Day 1 AM, Geo. Mean) was 4.16 h, the AUC0-12 [4] was 470 ng·h/mL and the Cmax [4] was 85.9 ng/mL. For the same molecule, the tmax (100 mg BID fed, Cohort 2, Day 1 AM) was 2.0 h, the AUC0-12 [5] was 714 ng·h/mL and the AUC0-24 [5] was 1160 ng·h/mL. For the same molecule, the “AUC0-∞” value [5] was 1090 ng·h/mL, the Cmax [5] was 119 ng/mL and the AUC0-12 [6] was 748 ng·h/mL. For the same molecule, the AUC0-24 [6] was 1220 ng·h/mL, the tmax (100 mg BID fed, Cohort 2, Day 1 PM) was 3.0 h and the AUC0-12 [7] was 1050 ng·h/mL. For the same molecule, the “AUC0-∞” value [7] was 1380 ng·h/mL, the t1/2 [7] was 5.24 h and the Cmax [8] was 168 ng/mL. The t1/2 [8] was 5.31 h, the tmax (100 mg BID fed, Cohort 2, Day 7 AM) was 3.0 h and the AUC0-12 [9] was 875 ng·h/mL. For the same molecule, the AUC0-24 [9] was 1930 ng·h/mL, the “AUC0-∞” value [9] was 1700 ng·h/mL and the Cmax [9] was 106 ng/mL. The t1/2 [9] was 7.91 h, the Cmax (100 mg BID fed, Cohort 2, Day 7 PM, Mean) was 112 ng/mL and the tmax (100 mg BID fed, Cohort 2, Day 7 PM) was 6.0 h. The RCmax (100 mg BID fed, Cohort 2, Day 14 AM, Day 14/Day 1 accumulation ratio, Geo. Mean) was 1.90, the AUC0-12 [10] was 900 ng·h/mL and the AUC0-24 [10] was 1220 ng·h/mL. The “AUC0-∞” value [10] was 1780 ng·h/mL, the Cmax [10] was 155 ng/mL and the t1/2 [10] was 19.0 h. The AUC0-12 [11] was 943 ng·h/mL, the AUC0-24 [11] was 1270 ng·h/mL and the Cmax [11] was 168 ng/mL. The t1/2 [11] was 19.6 h, the tmax (100 mg BID fed, Cohort 2, Day 14 AM) was 2.0 h and the “time to peak plasma concentrations (range), Day 1” value (100 mg KAR5585 BID, Part 2 Cohort 1 (fasted state)) was 2.0 to 6.0 h. For the same molecule, the “median tmax Day 14” value (100 mg KAR5585 BID, fasted) was 3.0 hour postdose, the “mean peak concentration relative to corresponding peak mean concentration of KAR5585, Day 1” value [12] was “approximately 7.25 fold” and the “mean peak concentration relative to corresponding peak mean concentration of KAR5585, Day 14” value [12] was ~9.1 fold. For the same molecule, the “half-life, Day 14” value (100 mg KAR5585 BID, fasted state) was 18.8 h, the “median tmax Day 14” value (100 mg KAR5585 BID, fed) was 3.0 hour postdose and the AUC0-12 [13] was 1620 ng·h/mL. The “AUC0-∞” value [13] was 1980 ng·h/mL, the t1/2 [13] was 4.41 h and the AUC0-12 (200 mg BID fed, Cohort 3, Day 1 AM, Mean) was 1700 ng·h/mL. For the same molecule, the tmax (200 mg BID fed, Cohort 3, Day 1 AM) was 3.0 h, the AUC0-24 [14] was 3540 ng·h/mL and the “AUC0-∞” value [14] was 2640 ng·h/mL.

Reference: patent US20200237759A1, “DOSAGE REGIME AND METHOD FOR TREATING PULMONARY ARTERIAL HYPERTENSION” (Altavant Sciences GmbH, priority 2019, published 2020)
